Active and inactive are the calls of the source. No cut-off for these calls is given here.
Tests used:
B16-F10 [1] = experiment: Induction of cell cycle arrest in mouse B16-F10 cells assessed as P21 protein accumulation at 0.31 to 1.25 uM after 24 hrs by Western blotting analysis; format: functional, cell-based; settings: dose 0.31-1.25 µM
A-375 [2] = experiment: Antiproliferative activity against human A-375 cells assessed as inhibition of cell growth after 24 to 72 hrs by MTT assay; format: functional, cell-based
B16-F10 [3] = experiment: Induction of mitochondrial damage in mouse B16-F10 cells assessed as change in mitochondrial morphology at 2.5 uM incubated for 24 hrs by TEM analysis; format: functional, cell-based
A-375 [4] = experiment: Induction of ROS generation in human A-375 cells assessed as reduction in SOD2 expression level at 1.25 uM preincubated with rosiglitazone for 24 hrs followed by compound addition for 24 hrs; format: functional, cell-based
B16-F10 [5] = experiment: Induction of mitochondrial damage in mouse B16-F10 cells assessed as increase in ROS production at 2.5 uM after 5 to 60 mins by DCFH-DA staining based flow cytometry analysis; format: functional, cell-based; settings: time 5-60 min
B16-F10 [6] = experiment: Antiproliferative activity against mouse B16-F10 cells assessed as inhibition of cell growth after 24 to 72 hrs by MTT assay; format: functional, cell-based
A-375 [7] = experiment: Induction of cell cycle arrest in human A-375 cells assessed as accumulation of cells at G0/G1 phase incubated for 24 hrs by PI staining based flow cytometry analysis (reference value: 12.05%); format: functional
[8] = Renal toxicity in C57BL/6J mouse inoculated with mouse B16-F10 cells assessed as change in BUN level at 2 mg/kg, ip administered every other day for 22 days; format: organism-based; settings: in vivo, 528 h, time 22 day
B16-F10 [9] = experiment: Inhibition of cell metastasis in mouse B16-F10 cells assessed as reduction in MMP9 protein level at 0.31 to 1.25 uM after 24 hrs by Western blotting analysis; format: functional, cell-based; settings: dose 0.31-1.25 µM
B16-F10 [10] = experiment: Inhibition of Wnt/beta-catenin signaling in mouse B16-F10 cells assessed as reduction in beta-catenin expression at 1.25 uM preincubated with rosiglitazone for 24 hrs followed by compound addition and measured after 24 hrs in presence of H2O2; format: cell-based
[11] = Toxicity in C57BL/6J mouse inoculated with mouse B16-F10 cells assessed as reduction in body weight at 2 mg/kg, ip administered every other day and measured after 16 days; format: organism-based; settings: in vivo, 384 h, time 16 day
A-375 [12] = experiment: Induction of cell cycle arrest in human A-375 cells assessed as reduction in Cdk2 protein level at 0.31 to 1.25 uM after 24 hrs by Western blotting analysis; format: functional, cell-based; settings: dose 0.31-1.25 µM
A-375 [13] = experiment: Inhibition of cell migration in human A-375 cells after 24 hrs by transwell assay; format: functional, cell-based; settings: dose 0.31-1.25 µM
[14] = Toxicity in C57BL/6J mouse inoculated with mouse B16-F10 cells assessed as effect on liver morphology at 2 mg/kg, ip administered every other day for 22 days by H and E staining based assay; format: organism-based; settings: in vivo, 528 h, time 22 day
A-375 [15] = experiment: Antitumor activity against human GFP-stained A-375 cells inoculated in zebrafish assessed as reduction in tumor growth by measuring tumor fluorescence intensity; format: functional, cell-based
A-375 [16] = experiment: Inhibition of Wnt/beta-catenin signaling in human A-375 cells assessed as reduction in beta-catenin expression at 1.25 uM incubated for 24 hrs; format: cell-based
B16-F10 [17] = experiment: Induction of cell cycle arrest in mouse B16-F10 cells assessed as reduction in Cdk4 protein level at 0.31 to 1.25 uM after 24 hrs by Western blotting analysis; format: functional, cell-based; settings: dose 0.31-1.25 µM
A549 = experiment: Antiproliferative activity against human A549 cells assessed as inhibition of cell growth at 0.31 uM after 72 hrs by MTT assay; format: functional; parameters: scale not given: the % may be the effect or the level left
B16-F10 [18] = experiment: Antitumor activity against mouse B16-F10 cells inoculated in C57BL/6J mouse assessed as reduction in PPARgamma expression at 0.5 to 2 mg/kg, ip administered every other day and measured on day 22 by immunohistochemistry analysis; format: functional, organism-based; settings: dose 0.5-2 mg/kg, time 22.0 day
B16-F10 [19] = experiment: Induction of mitochondrial damage in mouse B16-F10 cells assessed as mitochondrial vacuolation at 2.5 uM incubated for 24 hrs by TEM analysis; format: functional, cell-based
B16-F10 [20] = experiment: Inhibition of Wnt/beta-catenin signaling in mouse B16-F10 cells assessed as reduction in TCF4 expression at 1.25 uM incubated for 24 hrs; format: cell-based
B16-F10 [21] = experiment: Induction of ROS generation in mouse B16-F10 cells assessed as reduction in PPARgamma expression level at 1.25 uM preincubated with rosiglitazone for 24 hrs followed by compound addition for 24 hrs; format: functional, cell-based
[22] = Drug uptake in mouse B16-F10 cells implanted in C57BL/6J mouse assessed as fluorescence aggregation in liver at 3 mg/kg, iv measured after 12 hrs; format: ADME, organism-based; settings: in vivo
B16-F10 [23] = experiment: Induction of mitochondrial damage in mouse B16-F10 cells assessed as mitochondrial swelling at 2.5 uM incubated for 24 hrs by TEM analysis; format: functional, cell-based
A-375 [24] = experiment: Induction of cell cycle arrest in human A-375 cells assessed as P27 protein accumulation at 0.31 to 1.25 uM after 24 hrs by Western blotting analysis; format: functional, cell-based; settings: dose 0.31-1.25 µM
A-375 [25] = experiment: Induction of cell cycle arrest in human A-375 cells assessed as reduction in Cdk4 protein level at 0.31 to 1.25 uM after 24 hrs by Western blotting analysis; format: functional, cell-based; settings: dose 0.31-1.25 µM
B16-F10 [26] = experiment: Induction of ROS generation in mouse B16-F10 cells assessed as reduction in GPX1 expression level at 0.31 to 1.25 uM incubated for 24 hrs; format: functional, cell-based; settings: dose 0.31-1.25 µM
B16-F10 [27] = experiment: Antitumor activity against mouse B16-F10 cells inoculated in mouse assessed as reduction in tumor invasion at 2 mg/kg, ip administered every other day and measured on day 18 by H and E staining based assay; format: functional, organism-based; settings: time 18.0 day
A-375 [28] = experiment: Induction of cell cycle arrest in human A-375 cells assessed as reduction in cyclin E1 protein level at 0.31 to 1.25 uM after 24 hrs by Western blotting analysis; format: functional, cell-based; settings: dose 0.31-1.25 µM
MDA-MB-231 = experiment: Antiproliferative activity against human MDA-MB-231 cells assessed as inhibition of cell growth at 0.31 uM after 72 hrs by MTT assay; format: functional; parameters: scale not given: the % may be the effect or the level left
B16-F10 [29] = experiment: Inhibition of cell metastasis in mouse B16-F10 cells assessed as reduction in MMP2 protein level at 0.31 to 1.25 uM after 24 hrs by Western blotting analysis; format: functional, cell-based; settings: dose 0.31-1.25 µM
B16-F10 [30] = experiment: Induction of mitochondrial damage in mouse B16-F10 cells assessed as increase in ROS production measured upto 120 mins by DCFH-DA staining based flow cytometry analysis; format: functional, cell-based; settings: dose 0.16-2.5 µM
[31] = Cytotoxicity against human A-375 cells assessed as cell viability at 40 uM incubated for 24 hrs by MTT assay; format: toxicity, cell-based; settings: read-out: Activity
A-375 [32] = experiment: Inhibition of Wnt/beta-catenin signaling in human A-375 cells assessed as reduction in TCF4 expression at 1.25 uM preincubated with rosiglitazone for 24 hrs followed by compound addition and measured after 24 hrs in presence of H2O2; format: cell-based
[33] = Drug uptake in human A-375 cells mitochondria at 2.5 uM incubated for 45 mins by mito-tracker green dye based confocal laser scanning fluorescence microscopy analysis; format: ADME; settings: a-375, 0.75 h

With `CC[N+]1=C(/C=C/C2=C(Cl)C(=C/C=C3\N(CCCCCC(=O)O/C(=N/C4CCCCC4)NC4CCCCC4)c4ccccc4C3(C)C)/CCC2)C(C)(C)c2ccccc21.[Br-]` the Activity (B16-F10 [1]) was “Active”, the IC50 (A-375 [2]) was 180 nM and the Activity (A-375 [2]; time 24-72 hrs) was “Dose-Dependent Effect”. The Activity (B16-F10 [3]) was “Active”, the Activity (A-375 [4]) was “inactive” and the Activity (B16-F10 [5]) was “Active”. The IC50 (B16-F10 [6]) was 410 nM, the Activity (B16-F10 [6]; time 24-72 hrs) was “Dose-Dependent Effect” and the Activity (A-375 [7]) was 45.5%. For the same compound, the Activity [8] was “Non-Toxic”, the inhibition (B16-F10 [9]) was “Active” and the inhibition (B16-F10 [10]) was “inactive”. For the same compound, the Activity [11] was “Non-Toxic”, the Activity (A-375 [12]) was “Active” and the inhibition (A-375 [13]) was “Dose-Dependent Effect”. For the same compound, the Activity [14] was “Non-Toxic”, the Activity (A-375 [15]) was “Active” and the inhibition (A-375 [16]) was “Active”. For the same compound, the Activity (B16-F10 [17]) was “Active”, the Activity (A549) was 70% and the Activity (B16-F10 [18]) was “Active”. The Activity (B16-F10 [19]) was “Active”, the inhibition (B16-F10 [20]) was “Active” and the Activity (B16-F10 [21]) was “inactive”. The Drug uptake [22] was “Active”, the Activity (B16-F10 [23]) was “Active” and the Activity (A-375 [24]) was “Active”. For the same compound, the Activity (A-375 [25]) was “Active”, the Activity (B16-F10 [26]) was “Active” and the Activity (B16-F10 [27]) was “Active”. For the same compound, the Activity (A-375 [28]) was “Active”, the Activity (MDA-MB-231) was 70% and the inhibition (B16-F10 [29]) was “Active”. The Activity (B16-F10 [30]) was “Dose-Dependent Effect”, the viability at 24 h, 40 µM [31] was 90% and the inhibition (A-375 [32]) was “inactive”. For the same compound, the Drug uptake [33] was “Active”.
